One data set addresses T1, Monoamine oxidase B (Homo sapiens, UniProt P27338).
T1 sequence (P27338 2-520): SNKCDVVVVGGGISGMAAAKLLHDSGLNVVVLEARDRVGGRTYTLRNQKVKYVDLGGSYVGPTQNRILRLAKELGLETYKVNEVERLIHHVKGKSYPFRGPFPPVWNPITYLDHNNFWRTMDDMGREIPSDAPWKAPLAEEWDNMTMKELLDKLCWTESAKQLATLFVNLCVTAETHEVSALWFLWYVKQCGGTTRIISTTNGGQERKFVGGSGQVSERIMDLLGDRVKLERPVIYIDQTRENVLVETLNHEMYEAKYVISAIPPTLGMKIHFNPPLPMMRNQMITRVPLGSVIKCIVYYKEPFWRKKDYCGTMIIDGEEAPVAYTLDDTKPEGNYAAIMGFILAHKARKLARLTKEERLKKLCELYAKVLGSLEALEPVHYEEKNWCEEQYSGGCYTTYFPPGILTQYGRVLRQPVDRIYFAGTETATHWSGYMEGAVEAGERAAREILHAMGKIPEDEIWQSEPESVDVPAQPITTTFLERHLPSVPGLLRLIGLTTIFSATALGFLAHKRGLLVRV
As to conditions: cited from earlier work.

Data set [1] in a line: PAMPA-BBB parallel artificial membrane permeability assay. As to conditions: for Papp at 4 h, 100 µM: PAMPA; for Experimental log Pe value / Membrane retention: PAMPA-BBB, pH 7.4, 37°C, 4 hours, n=9, ± SD; for Experimental log Pe value: Pe in cm/s. (In PAMPA a lipid-coated filter parts donor from acceptor wells.)
The nature of data set [2]: Octanol/water partitioning, shake-flask method (log P, log D^pH). Conditions: n-octanol/Britton-Robinson buffer.
On the set-up of data set [3]: method as in literature (reference not given). Conditions: ref literature (reference not given); cited from earlier work.
The test system of another data set is MAO-B vs MAO-A. Description: Selectivity index of ChEMBl reference structures (MAO-A and MAO-B IC50). The format is biochemical, human. Conditions: MAO-A IC50 / MAO-B IC50 of ChEMBL reference structures.
A further data set has as its target T2, Monoamine oxidase A (Homo sapiens, UniProt P21397).
T2 sequence (P21397 1-527): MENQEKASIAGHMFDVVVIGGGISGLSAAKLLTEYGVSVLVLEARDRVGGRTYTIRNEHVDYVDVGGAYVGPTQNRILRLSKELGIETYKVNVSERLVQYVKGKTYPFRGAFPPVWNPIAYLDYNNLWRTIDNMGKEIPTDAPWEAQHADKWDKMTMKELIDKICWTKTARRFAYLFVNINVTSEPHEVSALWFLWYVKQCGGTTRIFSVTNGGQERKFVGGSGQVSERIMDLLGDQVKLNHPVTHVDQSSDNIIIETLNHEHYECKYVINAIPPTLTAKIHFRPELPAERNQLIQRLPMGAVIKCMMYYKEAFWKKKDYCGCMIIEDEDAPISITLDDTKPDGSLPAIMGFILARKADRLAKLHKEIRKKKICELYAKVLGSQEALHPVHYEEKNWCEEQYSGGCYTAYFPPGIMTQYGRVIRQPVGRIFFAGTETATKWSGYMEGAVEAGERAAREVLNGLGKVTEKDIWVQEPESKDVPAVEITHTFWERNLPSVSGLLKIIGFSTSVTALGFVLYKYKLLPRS
As to conditions: cited from earlier work.

For data set [4] the following is noted: PAMPA, pH 7.4.
Another data set concerns MAO-B. As to conditions: cited from earlier work; for IC50: in vitro; for MAO-B selectivity index: MAO-B over MAO-A.

Results on 13 compounds are retold here after publication PMC8929578, “In vitro and in silico evaluation of Ononis isoflavonoids as molecules targeting the central nervous system” (PLoS ONE, 2022).

Values joined by “and” are separate entries in the source; they are usually repeats but may differ in a detail not shown here. Equal values may be shown once. Read-outs that look alike come from different tables or passages of the source.

On to `O=C1/C(=C/c2ccc(O)cc2)COc2cc(O)cc(O)c21` [CHEMBL1077616], for which the half-inhibitory concentration (IC50) at Monoamine oxidase B (human enzyme, closest reference structures, ref ChEMBl database, read-out: IC50 values (MAO-B)) is 8.71 µM.
In data set [1] (pH 7.4), `COc1ccc(-c2coc3cc(O)ccc3c2=O)cc1` [Formononetin] gave a Papp at 4 h, 100 µM of 10 ×10⁻⁶ cm/s. In data set [1], the “Experimental log Pe value” is -5.00 ± 0.11; the Membrane retention was 27.25% and 27.25 ± 6.43%. Also, in data set [2] (pH 5), the logD at 1 h came to 2.83 ± 0.05 and the logP at 1 h came to 2.83. In data set [2] (pH 7.4), the logD at 1 h was found to be 2.73 ± 0.07.
Turning to `Cn1c(=O)c2c(ncn2C)n(C)c1=O` [Caffeine], in data set [3], the “log BB literature value” is recorded as 0.01. Besides, the apparent permeability coefficient (Papp) at 4 h, 100 µM in data set [1] was 3.24 ×10⁻⁶ cm/s.
Regarding `O=C(O)c1ccccc1O` [Salicylic acid], the “log BB literature value” in [3] is given as -1.10. In addition, the Papp at 4 h, 100 µM in data set [1] was 0.00851 ×10⁻⁶ cm/s.
In the data set on MAO-B vs MAO-A, `c1ccc2c(c1)OCC(C1=NCCN1)O2` (centres unmarked) [CHEMBL10316, IDAZOXAN] registered a Selectivity index of 1. The “pChEMBL Value, Type B” value on Monoamine oxidase B (MAO-B, ref ChEMBL database) is 6. The IC50 on Monoamine oxidase B (MAO-B, ref ChEMBL database, read-out: Standard Value (IC50), Type B) is 1 µM; at Monoamine oxidase B (human enzyme, lines marked B, ref ChEMBl database, read-out: Standard Value (IC50), MAO B) it was 1 µM; at Monoamine oxidase A (read-out: Standard Value (IC50), MAO A, human enzyme, ref ChEMBl database), 1 µM; on Monoamine oxidase A (read-out: Standard Value (IC50), Type A, MAO-A, ref ChEMBL database) it was 1 µM. The “pChEMBL Value, MAO B” value at Monoamine oxidase B (human enzyme, lines marked B, ref ChEMBl database) is given as 6. Besides, the “pChEMBL Value, Type A” value at Monoamine oxidase A (MAO-A, ref ChEMBL database) is listed as 6. Also, at Monoamine oxidase A (human enzyme, ref ChEMBl database), the “pChEMBL Value, MAO A” value is 6.
On to `COc1ccc2c(c1)O[C@H]1c3ccc(O)cc3OC[C@@H]21` [Medicarpin], for which the “Experimental log P” value (pH 5) is 3.03. For the same compound, for the setting “pH 7.4”, the “Measured log D^7.4 ± SE” value is 3.03 ± 0.02. The “Experimental log Pe value” in data set [4] (4 h, 100 µM) is listed as -4.45; in data set [4], -4.45 ± 0.04. The IC50 with MAO-B was 0.3 µM.
As for `COc1cc(-c2coc3cc(O)ccc3c2=O)ccc1O` [Calycosin D], the Papp at 4 h, 100 µM in data set [1] (pH 7.4) turned out to be 2.5 ×10⁻⁶ cm/s. In data set [1], the “Experimental log Pe value” was -5.60 and -5.60 ± 0.07; the Membrane retention was 16.49% and 16.49 ± 1.38%. The “BBB category from Pe” value in data set [1] (categorization of Di et al.) is reported as “uncertain”. Further, the “BBB category from log Pe” value in [1] (cut-off of Könczöl et al.) was “well-permeating”. Besides, in data set [1] (cut-off of Mensch et al.), the “BBB category from log Pe” value is listed as “BBB-”. Moreover, in data set [2] (pH 5), the logD at 1 h was 2.48 ± 0.02 and the logP at 1 h was 2.48. Moreover, the logD at 1 h in data set [2] (pH 7.4) came to 2.21 ± 0.04.
Consider `Oc1ccc2c(c1)OC[C@H]1c3cc4c(cc3O[C@@H]21)OCO4` [Maackiain], for which, in [4] (4 h, 100 µM), the “Experimental log Pe value” was -4.48. Besides, the “Experimental log Pe value” in data set [4] is -4.48 ± 0.08. In the data set with MAO-B, the MAO-B selectivity index is 126.2, the “Type of MAO-B inhibition” value is recorded as “reversible” and the 50% inhibitory concentration (IC50) is 0.68 µM. The “Measured log D^7.4 ± SE” value in data set [2] (pH 7.4, 25°C) turned out to be 2.49 ± 0.02. For the same compound, in data set [2] (unionized form (pH 5 for isoflavones and isoflavanones)), the “Experimental log P” value turned out to be 2.49.
On to `COc1cc2c(cc1C1COc3cc(O)ccc3C1=O)OCO2` (centres unmarked) [Onogenin], for which the Papp at 4 h, 100 µM in data set [1] (pH 7.4) is 18.6 ×10⁻⁶ cm/s. In addition, in [1], the “Experimental log Pe value” is on record as -4.73 ± 0.04; the Membrane retention was 32.51% and 31.51 ± 4.04%. Moreover, in data set [2] (pH 5), the logD at 1 h is 3.03 ± 0.02 and the logP at 1 h came out at 3.03. Moreover, in [2] (pH 7.4), the logD at 1 h is 2.49 ± 0.04.
For the compound `C[C@@H]1O[C@@H](OC[C@H]2O[C@@H](Oc3c(-c4ccc(O)c(O)c4)oc4cc(O)cc(O)c4c3=O)[C@H](O)[C@@H](O)[C@@H]2O)[C@H](O)[C@H](O)[C@H]1O` [Rutin], the “log BB literature value” in data set [3] was -1.22. This compound gave a Papp at 4 h, 100 µM in data set [1] of 0.00776 ×10⁻⁶ cm/s.
For `C=C[C@H]1C[N@@]2CC[C@H]1C[C@H]2[C@H](O)c1ccnc2ccc(OC)cc12` [Quinine], the “log BB literature value” in data set [3] is reported as 0.60. This compound also had a Papp at 4 h, 100 µM in data set [1] of 15.5 ×10⁻⁶ cm/s.
Consider `COc1ccc(C2COc3cc(O)ccc3C2=O)c(OC)c1` (centres unmarked) [Sativanone], for which the Papp at 4 h, 100 µM in data set [1] (pH 7.4) is 17.4 ×10⁻⁶ cm/s. In addition, in data set [1], the “Experimental log Pe value” is on record as -4.76 ± 0.07; the Membrane retention is 33.66% and 33.66 ± 4.13%. In [2] (pH 5), the logD at 1 h stood at 3.04 ± 0.01 and the logP at 1 h was 3.04. In [2] (pH 7.4), this compound had a logD at 1 h of 2.75 ± 0.03.
As to `COc1ccc(-c2coc3cc(O)ccc3c2=O)cc1O` [Calycosin], in the data set with MAO-B, the MAO-B selectivity index is given as 293.8 and the half-maximal inhibitory concentration (IC50) is 0.24 µM.

The IC50 is the concentration at which inhibition is half-maximal. The Papp is a coefficient for how fast a substance crosses the barrier. The logD is the decadic logarithm of the distribution of all forms, ionised or not, between an organic phase and buffer at a given pH. Read a low logD as a more hydrophilic compound. As a reminder, the logP is the decadic logarithm of the partition coefficient of the neutral form, usually between octanol and water. The low end stands for lower lipophilicity, the high end for higher lipophilicity.
